Each structure is given as a SMILES string.

A word on the Kd: it is the free concentration of one partner at which half of the binding sites on the other are occupied at equilibrium, for simple one-to-one binding. A low value points to higher affinity.

In this test the target is AKT (PH domain) (Homo sapiens, UniProt P31749). Nature of the test: intrinsic fluorescence quenching. The class given is binding.
Sequence of AKT (PH domain) (P31749 1-123): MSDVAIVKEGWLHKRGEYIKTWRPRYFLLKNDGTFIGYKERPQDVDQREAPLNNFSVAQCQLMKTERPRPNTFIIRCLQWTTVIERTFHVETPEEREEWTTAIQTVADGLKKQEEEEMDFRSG
The compound `O=C(O)/C=C/c1ccc(O[C@@H]2O[C@H](C(=O)O)[C@@H](O)[C@H](O)[C@H]2O)c(O)c1` [CA4G, caffeic-4′-O-glucuronide] came in with a Kd of 37.9 µM.

In turn, `O=C(O)/C=C/c1ccc(O)c(O)c1` [CA, caffeic acid] returned an equilibrium dissociation constant (Kd) of 183 µM. The value for `COc1cc(/C=C/C(=O)O)ccc1O[C@@H]1O[C@H](C(=O)O)[C@@H](O)[C@H](O)[C@H]1O` [FA4G, ferulic-4′-O-glucuronide] was 48.1 µM. `COc1cc(/C=C/C(=O)O)ccc1O` [FA, ferulic acid] gave a Kd of 185 µM.
